From patent US20230272016A1, “PEPTIDES FOR IMMUNOTHERAPY” (Second Genome, Inc., priority 2020, published 2023)
Entries after “also recorded” stand apart in the source; their conditions may differ.

Assays:
[1] = test system: immature monocyte-derived dendritic cells (moDCs) and allogeneic T cells; assay: moDC / allogeneic T cell co-culture cytokine secretion; format: cell-based, human; conditions: after anti-CD40 pre-stimulation, peptide alone or in combination with anti PD1; 72 hours; >4 donor PBMCs
Procedure: In another study, immature monocyte-derived dendritic cells (moDCs) were pre-stimulated with anti-CD40 agonist antibody or the mouse IgG1 isotype control antibody. Twenty-four hours later, T cells isolated from allogeneic donors were added to the moDCs with the peptide of interest, SG-3-00802 or SG-3-05021, alone or in combination with […] monoclonal antibody. The co-culture of cells was incubated for 72 hours, after which cell supernatants were harvested and analyzed for secretion of cytokines, IFN-g and TNF-α. Both SG-3-00802 and SG-3-05021 induced an increase in IFN-γ and TNF-α after stimulation with anti-CD40 either alone or in combination with anti PD1 (FIGS. 26A-26B and 27A-27B). Data shown for experiment conducted in >4 Donor PBMCs.

RENCA tumors = assay: RENCA murine adenocarcinoma syngeneic tumor model; format: in vivo, BALB/c mice; conditions: for survival time (days) / tumor volume: peptide 2.5 mg/kg daily peritumorally; for survival time (days): anti-PD-1 10 mg/kg i.p., compared to PBS or anti-PD-1 alone; for tumor volume: anti-PD-1 10 mg/kg intraperitoneal, compared to PBS treated control mice
Procedure: To determine anti-tumor activity of SG-3-00802 in vivo, the RENCA murine adenocarcinoma model was used. It is a syngeneic, standardized experimental model of metastatic RCC. Briefly, BALB/c female mice were inoculated subcutaneously with RENCA cells. Established tumors were treated daily with 2.5 mg/kg SG-3-00802 peritumorally, alone or in combination with intraperitoneal administration of 10 mg/kg anti-PD-1 antibody. […] QD indicates administration of the peptide once a day. BID indicates administration of the peptide twice a day.
Balb/c female mice were implanted with RENCA cells in the left flank. When tumors were established and reach ˜100 mm^3 or 200 mm^3 mice were allocated into dosing groups. Each dosing group had 10-12 animals. Peptides were dosed peritumoral at 2.5 mg/kg BID for 7 d and anti-PD-1 was dosed intraperitoneally at 10 mg/kg TIW for a total of 3 doses. Mice were monitored for tumor growth and survival. Tumor volumes were measured twice a week. A survival event (censoring) was reached when tumor volume reached 1000 mm^3 and additional survival events were defined as animals that had to be euthanized due to ulceration.
Additional studies were performed to test survival and tumor volume responses to a re-challenge event. In one study, mice were allocated into dosing groups when tumors reached ˜100 mm^3. During the initial dosing study, time 0 was the first day of seven days of dosing. […] Re-implantation was completed on day 39 after dosing completion. Treated mice were tumor free for >20 days before being re-challenge. […] Tumor volume and survival was been monitored as previously described. In the re-challenge experiment, time 0 is day 10 after re-challenge dosing.
In the initial dosing experiment, tumor volumes were smaller in both the SG-3-00802 alone treatment and SG-3-00802 with anti-PD-1 antibody combinatorial treatment 40 days after dosing started (FIGS. 32A-32B).
In another re-challenge study, mice were instead allocated into dosing groups when tumors reached ˜200 mm^3. The same procedure as described above was used, except where indicated. […] Re-implantation was completed on day 37 after dosing completion, and time 0 is day 12 post re-challenge. […] In the initial dosing experiment, tumor volumes were smaller in both the SG-3-00802 alone treatment and SG-3-00802 with anti-PD-1 antibody combinatorial treatment 15 days after dosing started (FIGS. 35A-35B).
To determine anti-tumor activity of SG-3-00802 in vivo, the RENCA murine adenocarcinoma model was used. Briefly, BALB/c female mice were inoculated subcutaneously with RENCA cells. Established tumors were treated daily with 2.5 mg/kg SG-3-00802 peritumorally, alone or in combination with intraperitoneal administration of 10 mg/kg anti-PD-1 antibody. […]

CXCR3 = molecular target: T1, CXCR3 (Homo sapiens, UniProt P49682); assay: SelectScreen chemokine receptor U2OS agonist/antagonist assay; format: cell-based; design: host or cells: CXCR3-bla U2OS; conditions: CXCR3-bla U2OS cells; for SelectScreen Antagonist Mode: control agonist I-TAC (CXCL11) at EC80
T1 sequence (P49682 1-368): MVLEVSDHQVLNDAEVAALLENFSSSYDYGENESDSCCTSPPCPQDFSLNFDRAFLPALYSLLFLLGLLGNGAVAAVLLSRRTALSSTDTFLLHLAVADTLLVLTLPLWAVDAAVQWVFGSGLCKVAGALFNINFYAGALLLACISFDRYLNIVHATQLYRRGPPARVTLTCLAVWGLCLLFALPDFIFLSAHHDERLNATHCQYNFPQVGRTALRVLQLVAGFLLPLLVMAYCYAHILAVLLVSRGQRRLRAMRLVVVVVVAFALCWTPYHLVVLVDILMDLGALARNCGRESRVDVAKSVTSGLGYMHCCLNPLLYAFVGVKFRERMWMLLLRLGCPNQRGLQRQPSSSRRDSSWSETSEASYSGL
Procedure: Peptides SG-3-00802 and SG-3-05021 were screened for agonist and antagonist activity of the chemokine receptors CCR7, CXCR3, and CXCR4.
In agonist assays, chemokine receptor expressing U2OS cells are thawed and resuspended in Assay Media (DMEM, 1% dialyzed FBS, 25 mM HEPES pH 7.3, 0.1 mM NEAA, 100 U/mL/100 μg/mL Pen/Strep) to a concentration of 312,500 cells/mL. 4 μL of a 10×serial dilution of I-TAC (control agonist starting concentration, 500 nM) or compounds are added to appropriate wells of a 384-well TC-Treated assay plate. 32 μL of cell suspension (10,000 cells) is added to each well. 4 μL of Assay Media is added to all wells to bring the final assay volume to 40 μL. The plate is incubated for 16-24 hours at 37° C./5% CO2 in a humidified incubator. 8 μL of 1 μM Substrate+Solution D Loading Solution is added to each well and the plate is incubated for 2 hours at room temperature. The plate is read on a fluorescence plate reader.
In antagonist assays, CXCR3-bla U2OS cells were thawed and prepared as described above for the Agonist assay. 4 μL of 10×compounds or assay media was added to appropriate wells of a TC-Treated assay plate. 32 μL of cell suspension was added to the wells and pre-incubated at 37° C./5% CO2 in a humidified incubator with compounds and control antagonist titration for 30 minutes. 4 μL of 10×control agonist I-TAC at the pre-determined EC80 concentration is added to wells containing the control antagonist or compounds. The plate is incubated for 16-24 hours at 37° C./5% CO2 in a humidified incubator. 8 μL of 1 μM Substrate+Solution D Loading Solution is added to each well and the plate is incubated for 2 hours at room temperature. The plate is read on a fluorescence plate reader.
Activity assays for CXCR4, CXCR3, and CCR7 were performed in agonist and antagonist mode for both SG-3-00802 and SG-3-05021 peptides. […] SG-3-00802 and SG-3-05021 may allow for a mechanism to enhance CXCR3 activation already shown to be a critical pathway in numerous publications as mediating anti-tumor treatment.

| Sequence | IFN-γ secretion [1] | TNF-α secretion [1] | survival time (days) (RENCA tumors) | tumor volume (RENCA tumors) | SelectScreen Agonist Mode (CXCR3) | SelectScreen Antagonist Mode (CXCR3) | volume of syngeneic RENCA tumors, dose dependence (RENCA tumors; QD or BID administration of the peptide) | # of animals with complete tumor regression out of total animals per group (primary study) (RENCA tumors; Table 16, ~100 mm^3 study) | # of animals without tumor progression out of re-challenged animals per group (re-challenge study) (RENCA tumors; Table 16, ~100 mm^3 study) | # of animals with complete tumor regression out of total animals per group (primary study) (RENCA tumors; Table 17, ~200 mm^3 study) | survival, initial dosing (RENCA tumors; dosing groups allocated at tumors ~100 mm^3) | survival, initial dosing (RENCA tumors; dosing groups allocated at tumors ~200 mm^3) | tumor volumes, initial dosing experiment (RENCA tumors; ~100 mm^3 study, 40 days after dosing started) | percent of mice surviving after re-challenge (RENCA tumors; ~100 mm^3 study, re-implantation on day 39 after dosing completion, opposite flank) | tumor volumes after re-challenge (RENCA tumors; ~100 mm^3 study, vs PBS-treated control mice) | tumor volumes, initial dosing experiment (RENCA tumors; ~200 mm^3 study, 15 days after dosing started) |
| --- | --- | --- | --- | --- | --- | --- | --- | --- | --- | --- | --- | --- | --- | --- | --- | --- |
| LGKTDWIEKYFKVKKEKIDKMQRFLQG [SG-3-05021, peptide from bacteroides.clarus.dsm.22519] | increase | increase | survived a longer time | decrease in tumor volume | no agonistic activity and No | sensitized CXCR3; also recorded: Sensitizer |  |  |  |  |  |  |  |  |  |  |
| MKVRPSVKPMCEKCKIIRRKGRVMVICENPKHKQRQG [SG-3-00802, peptide from oscillibacter.sp t_155102] | increase | increase | survived a longer time | robust decrease | weak agonistic activity and No | potent reverse antagonistic activity (sensitization); also recorded: sensitized CXCR3; also recorded: Sensitizer | dose-dependent manner | 2/12 | 2/2 | 0/10 | increased survival | increased survival | smaller | increased percent of mice surviving | remained smaller than PBS-treated control mice | smaller |
